Source: PubChem BioAssay (NCI)
Where “and” joins values, the source holds several entries; their conditions need not be identical. Identical values can stand only once.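 48-hour exposure; five concentrations; linearly interpolated endpoints. GI50 marks 50% less growth. TGI: concentration producing complete growth inhibition.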

Key:
Test in all cases: DTP human tumour cell line panel, 48 h
[1] = system: MDA-MB-435
[2] = system: IGROV1 ovarian
[3] = system: A549 NSCLC
[4] = system: MCF7 breast
[5] = system: HCT-116 colon
[6] = system: OVCAR-3 ovarian
[7] = system: HL-60(TB) leukemia
[8] = system: NCI-H460 lung

SMILES | TGI [1] | TGI [2] | TGI [3] | TGI [4] | TGI [5] | TGI [6] | TGI [7] | TGI [8] | GI50 [1] | GI50 [2] | GI50 [3] | GI50 [4] | GI50 [5] | GI50 [6] | GI50 [7] | GI50 [8]
NCC1OC(n2cnc3c(=O)[nH]c(N)nc32)C(O)C1O (stereo not given) | > 100 µM | > 100 µM | > 100 µM | > 100 µM | > 100 µM | > 100 µM | > 100 µM | > 100 µM |  |  |  |  |  |  |  | 
ClC1(c2ccccc2)c2ccc(Br)cc2-c2cc(Br)ccc21 | 27.4 µM | 30.2 µM | 34.3 µM | 36 µM | 28.5 µM | 30.6 µM | > 100 µM | 27.4 µM |  |  |  |  |  |  |  | 
N#Cc1ccc(-c2nc3ccc(Cl)cc3[nH]2)cc1 |  | > 100 µM | > 100 µM | > 100 µM |  | > 100 µM | > 100 µM |  |  |  |  |  |  |  |  | 
CCOC(=O)C#Cc1ccc([N+](=O)[O-])cc1 | 10.8 µM | 4.42 µM | 27 µM | 2.49 µM | 3.03 µM | 3.13 µM | 4.1 µM | 29.2 µM |  |  |  |  |  |  |  | 
COc1cc2c(Nc3ccc(Br)cc3F)ncnc2cc1OCC1CCN(C)CC1 | 3.61 µM and > 10 µM | 3.61 µM and 5.27 µM | 15.9 µM and > 10 µM | 16 µM and > 10 µM | 15.1 µM and > 10 µM | 14.2 µM and > 10 µM | 7.56 µM and > 10 µM | 17 µM and > 10 µM | 1.74 µM and 3.81 µM | 0.408 µM and 0.398 µM | 3.32 µM and 4.63 µM | 2.52 µM and 4.67 µM | 3.8 µM and 4.32 µM | 1.65 µM and 2.58 µM | 2.65 µM and 3.14 µM | 4.69 µM and 9.98 µM
CC(C)NC(=O)OCc1c(COC(=O)NC(C)C)c(-c2ccc[n+](COC(=O)C3CC3)c2)n2c1CCC2 | > 100 µM | > 100 µM | > 100 µM | > 100 µM | > 100 µM | > 100 µM | > 100 µM | > 100 µM |  |  |  |  |  |  |  | 
Cc1cc(O)c(/C=N/c2nc(-c3cccc([N+](=O)[O-])c3)cs2)c(=O)o1 | > 100 µM | > 100 µM | > 100 µM | > 100 µM | > 100 µM | > 100 µM | 47.2 µM | > 100 µM |  |  |  |  |  |  |  | 
O=C1/C(=C/c2ccccc2)CN(CCC(=O)N2C/C(=C\c3ccccc3)C(=O)/C(=C/c3ccccc3)C2)C/C1=C\c1ccccc1 | 5.68 µM | 21.9 µM | > 100 µM | 26.3 µM | 4.17 µM | 19.2 µM | > 100 µM | > 100 µM | 0.683 µM | 5.19 µM | 29.3 µM | 0.182 µM | 0.346 µM | 3.07 µM | 13.7 µM | 35.9 µM
CN(C)c1ccc2cc(-c3cc4c(oc3=O)-c3ccccc3OC4O)c(=O)oc2c1 (stereo not given) | 15.9 µM | 12 µM | 7.15 µM | 11.2 µM | > 25 µM | > 25 µM | > 25 µM | 14.3 µM | 3.67 µM | 5.07 µM | 3.22 µM | 3.23 µM | 1.44 µM | 5.9 µM | 5.7 µM | 4.14 µM
CC1OC(O[C@H]2/C=C/C=C/C=C/C=C/C=C/C=C/C=C/[C@H](C)[C@@H](O)[C@@H](C)[C@H](C)OC(=O)C[C@H](O)C[C@H](O)CC[C@@H](O)[C@H](O)C[C@H](O)C[C@]3(O)C[C@H](O)[C@@H](C(=O)O)[C@H](C2)O3)C(O)C(N)C1O (stereo not given in full) | 19.3 µM | 20.7 µM | 34.9 µM | 56.1 µM | 50.2 µM | 27.2 µM | 30.6 µM | 40.4 µM | 7.94 µM |  | 9.72 µM |  |  |  | 3.29 µM | 19.1 µM
COC1CC2C=CC3C4OC2(/C(C)=C/C(C)C(C(C)O)OC1=O)C3C(O)C(C)C4OC(=O)c1ccc[nH]1 (stereo not given) | > 100 µM | > 100 µM | > 100 µM | > 100 µM | > 100 µM | > 100 µM | 63.3 µM | > 100 µM |  |  |  |  |  |  |  | 
O=c1ccccc(-c2ccc(-c3ccco3)cc2)c1O | > 100 µM | 73.8 µM | 47.5 µM | 29.8 µM | 15.8 µM | 26.3 µM | 2.69 µM | 10.8 µM | 1.85 µM | 0.633 µM | 1.39 µM | 0.412 µM | 0.582 µM | 0.415 µM | 0.441 µM | 0.408 µM
COc1cc2c(=O)n(CCCn3ccnc3)c3c4cc5c(cc4ccc3c2cc1OC)OCO5 |  | > 86.6 µM | > 100 µM | > 100 µM |  | > 100 µM |  | > 100 µM |  | 1.16 µM | 1.96 µM | 0.0999 µM |  | 0.344 µM |  | 0.293 µM
c1ccc(/N=C2\c3ccccc3CN2c2ccccn2)nc1 | > 100 µM | > 100 µM | > 100 µM | > 100 µM | > 100 µM | > 100 µM |  | > 100 µM |  |  |  |  |  |  |  | 
NCCCn1c2c(c3cc4c(cc3c1=O)OCO4)C(=O)c1ccccc1-2 | 1.42 µM |  |  |  | 0.554 µM | 1.27 µM | 2.93 µM | 4.11 µM | 0.567 µM |  |  |  |  | 0.564 µM | 1.48 µM | 2.06 µM
O=C(CN1CCOCC1)CC(O)(C(F)(F)F)C(F)(F)F | > 100 µM | > 100 µM | > 100 µM | > 100 µM | > 100 µM | > 100 µM | > 100 µM |  |  |  |  |  |  |  |  | 
N#C/C(=C/C=C/c1ccccc1)S(=O)c1ccccc1 (stereo not given) | 1.83 µM | 3 µM | 11.3 µM |  |  | 1.13 µM | 2.25 µM | 2.92 µM | 0.485 µM | 0.467 µM | 2.17 µM |  |  | 0.307 µM | 0.288 µM | 0.506 µM
Cc1ccc(C(=O)CCC2C(=O)CC(C)(C)CC2=O)cc1 | > 100 µM | > 100 µM | > 100 µM | > 100 µM | > 100 µM | > 100 µM |  | > 100 µM |  |  |  |  |  |  |  | 
Oc1cccc(Cn2c(-c3cccc(O)c3O)nc3ccccc32)c1O | 15.3 µM | > 100 µM | 40.9 µM | 13.8 µM | 10.9 µM | 0.76 µM |  | 16.3 µM | 2.13 µM | 34 µM | 14.1 µM | 1.44 µM | 2.24 µM | 0.0683 µM |  | 3.59 µM
